tested on: IL-1β release from THP-1 cells; test: IL-1β Release Assay (Alternate Method), THP-1 cells; type: cell-based, human; conditions: Homo sapiens, THP-1, read-out: IL-1β % inhibition
In short: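 THP-1 cells differentiated 16 h with 100 ng/mL LPS plus 100 ng/mL IFN-γ, reprimed 2 h with 100 ng/mL LPS, pretreated 30 min with compound, then challenged 45 min with 250 uM BzATP (final). Supernatant IL-1β quantified by ELISA; percent inhibition from background-adjusted levels versus untreated cells.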

SMILES | inhibition at 0.3 µM
O=C(CC12CC3CC(CC(C3)C1)C2)Nc1ncnc2c1CCN(Cc1ccccc1)C2 [Compound 5, 2-Adamantan-1-yl-N-(7-benzyl-5,6,7,8-tetrahydro-pyrido[3,4-d]pyrimidin-4-yl)-acetamide] | 25 to 50%
O=C(CC12CC3CC(CC(C3)C1)C2)Nc1ncnc2c1CCN(S(=O)(=O)c1ccccc1)C2 [Compound 143] | 0 to 25%

same assay, conditions: at 0.3 μM; THP-1 cells

SMILES | IL-1β % inhibition
O=C(CC12CC3CC(CC(C3)C1)C2)Nc1ncnc2c1CCN(Cc1ccccc1C(F)(F)F)C2 [Compound 120] | + (compound exhibited 0-25% inhibition at 0.3 μM)
Cc1ccc(F)c(CN2CCc3c(ncnc3NC(=O)CC34CC5CC(CC(C5)C3)C4)C2)c1Cl [Compound 88] | +++ (compound exhibited 50-75% inhibition at 0.3 μM)
COc1ccccc1CCC(=O)Nc1ncnc2c1CCN(CC1CCCCC1)C2 [Compound 136] | + (compound exhibited 0-25% inhibition at 0.3 μM)
Cc1c(S(=O)(=O)N2CCc3c(ncnc3NC(=O)CC34CC5CC(CC(C5)C3)C4)C2)cnn1-c1ccccc1 [Compound 160] | ++++ (compound exhibited 75% or greater inhibition at 0.3 μM)
N#Cc1ccc(S(=O)(=O)N2CCc3c(ncnc3NC(=O)CC34CC5CC(CC(C5)C3)C4)C2)c(Cl)c1 [Compound 165] | +++ (compound exhibited 50-75% inhibition at 0.3 μM)
O=C(CC12CC3CC(CC(C3)C1)C2)Nc1ncnc2c1CCN(S(=O)(=O)c1ccc(Oc3ccc(C(F)(F)F)cc3)cc1)C2 [Compound 177] | ++ (compound exhibited 25-50% inhibition at 0.3 μM)
O=C(CC12CC3CC(CC(C3)C1)C2)Nc1ncnc2c1CCN(Cc1c[nH]cn1)C2 [Compound 82] | +++ (compound exhibited 50-75% inhibition at 0.3 μM)
Cc1ccc(C2(CNC(=O)c3ncnc4c3CCN(Cc3ccccc3)C4)CCCCC2)cc1 [Compound 60] | + (compound exhibited 0-25% inhibition at 0.3 μM)
O=C(CC12CC3CC(CC(C3)C1)C2)Nc1ncnc2c1CCN(Cc1ccc(Cl)cc1)C2 [Compound 41] | + (compound exhibited 0-25% inhibition at 0.3 μM)
COc1ccc(C(=O)N2CCc3c(ncnc3NC(=O)CC34CC5CC(CC(C5)C3)C4)C2)cc1F [Compound 310] | +++ (compound exhibited 50-75% inhibition at 0.3 μM)
CC(C)(C(=O)Nc1ncnc2c1CCN(Cc1ccc(F)cc1)C2)C12CC3CC(CC(C3)C1)C2 [Compound 352] | + (compound exhibited 0-25% inhibition at 0.3 μM)
O=C(NCC12CC3CC(CC(C3)C1)C2)c1ncnc2c1CCN(Cc1ccc3c(c1)OCCO3)C2 [Compound 138] | ++++ (compound exhibited 75% or greater inhibition at 0.3 μM)
O=C(CC12CC3CC(CC(C3)C1)C2)Nc1ncnc2c1CCN(C(=O)c1ccc(F)cc1)C2 [Compound 251] | + (compound exhibited 0-25% inhibition at 0.3 μM)
COc1ccc(OC)c(S(=O)(=O)N2CCc3c(ncnc3NC(=O)CC34CC5CC(CC(C5)C3)C4)C2)c1 [Compound 216] | +++ (compound exhibited 50-75% inhibition at 0.3 μM)
Cc1ccccc1CN1CCc2c(ncnc2NC(=O)C(C)(C)C23CC4CC(CC(C4)C2)C3)C1 [Compound 349] | + (compound exhibited 0-25% inhibition at 0.3 μM)
CC(C)(C(=O)Nc1ncnc2c1CCN(C(=O)c1ccc(Cl)c(Cl)c1)C2)C12CC3CC(CC(C3)C1)C2 [Compound 360] | + (compound exhibited 0-25% inhibition at 0.3 μM)
Cc1cc(C(=O)N2CCc3c(ncnc3NC(=O)CC34CC5CC(CC(C5)C3)C4)C2)no1 [Compound 283] | +++ (compound exhibited 50-75% inhibition at 0.3 μM)
O=C(CC12CC3CC(CC(C3)C1)C2)Nc1ncnc2c1CCN(C(=O)Cc1ccccc1Br)C2 [Compound 302] | +++ (compound exhibited 50-75% inhibition at 0.3 μM)
CCN1CCc2c(ncnc2NC(=O)CC23CC4CC(CC(C4)C2)C3)C1 [Compound 8] | + (compound exhibited 0-25% inhibition at 0.3 μM)

SMILES | IL-1β % inhibition
O=C(CC12CC3CC(CC(C3)C1)C2)Nc1ncnc2c1CCN(Cc1ccc(OCCO)cc1)C2 [Compound 99] | + (compound exhibited 0-25% inhibition at 0.3 μM)
O=C(CC12CC3CC(CC(C3)C1)C2)Nc1ncnc2c1CCN(C(=O)c1ccc(Cl)c(Cl)c1)C2 [Compound 245] | +++ (compound exhibited 50-75% inhibition at 0.3 μM)
Cc1oncc1C(=O)N1CCc2c(ncnc2NC(=O)CC23CC4CC(CC(C4)C2)C3)C1 [Compound 299] | + (compound exhibited 0-25% inhibition at 0.3 μM)
O=C(CC1CCCCCC1)Nc1ncnc2c1CCN(Cc1cccnc1)C2 [Compound 93] | + (compound exhibited 0-25% inhibition at 0.3 μM)
O=C(NCC1CCCCC1)c1ncnc2c1CCNC2 [Compound 2] | + (compound exhibited 0-25% inhibition at 0.3 μM)
O=C(CC1CCCCCC1)Nc1ncnc2c1CCN(Cc1c[nH]cn1)C2 [Compound 126] | + (compound exhibited 0-25% inhibition at 0.3 μM)
CC1(C)CCCC(O)(CNC(=O)c2ncnc3c2CCN(Cc2ccccc2)C3)C1 (stereo not drawn) [Compound 59] | + (compound exhibited 0-25% inhibition at 0.3 μM)
CC(C)(C(=O)Nc1ncnc2c1CCN(S(=O)(=O)Cc1ccccc1)C2)C12CC3CC(CC(C3)C1)C2 [Compound 353] | + (compound exhibited 0-25% inhibition at 0.3 μM)
CC12CC3CC(C)(C1)CC(CC(=O)Nc1ncnc4c1CCN(C(=O)c1cccc(Cl)c1Cl)C4)(C3)C2 [Compound 391] | + (compound exhibited 0-25% inhibition at 0.3 μM)
O=C(NCC1CCCCC1)c1ncnc2c1CCN(Cc1ccncc1)C2 [Compound 49] | + (compound exhibited 0-25% inhibition at 0.3 μM)
CC12CC3CC(C)(C1)CC(CC(=O)Nc1ncnc4c1CCN(C(=O)c1ccc(Cl)c(Cl)c1)C4)(C3)C2 [Compound 385] | + (compound exhibited 0-25% inhibition at 0.3 μM)
COc1cccc(C(=O)N2CCc3c(ncnc3NC(=O)CC34CC5CC(CC(C5)C3)C4)C2)c1 [Compound 250] | +++ (compound exhibited 50-75% inhibition at 0.3 μM)
CC(C)(C(=O)Nc1ncnc2c1CCN(S(=O)(=O)Cc1ccc(Cl)cc1)C2)C12CC3CC(CC(C3)C1)C2 [Compound 357] | + (compound exhibited 0-25% inhibition at 0.3 μM)
Cc1noc(C)c1S(=O)(=O)N1CCc2c(ncnc2NC(=O)CC23CC4CC(CC(C4)C2)C3)C1 [Compound 169] | ++ (compound exhibited 25-50% inhibition at 0.3 μM)
O=C(c1ccc(Cl)cc1)N1CCc2c(ncnc2NC(=O)C23CC4CC(CC(C4)C2)C3)C1 [Compound 399] | + (compound exhibited 0-25% inhibition at 0.3 μM)
O=C(CC12CC3CC(CC(C3)C1)C2)Nc1ncnc2c1CCN(Cc1ccc3c(c1)CCO3)C2 [Compound 105] | + (compound exhibited 0-25% inhibition at 0.3 μM)
O=C(CC12CC3CC(CC(C3)C1)C2)Nc1ncnc2c1CCN(S(=O)(=O)c1ccc3c(c1)OCCO3)C2 [Compound 200] | + (compound exhibited 0-25% inhibition at 0.3 μM)
O=C(NCC12CC3CC(CC(C3)C1)C2)c1ncnc2c1CCN(Cc1ccc(F)cc1)C2 [Compound 338] | ++++ (compound exhibited 75% or greater inhibition at 0.3 μM)

same assay, conditions: at 0.3 μM; THP-1 cells, BzATP-stimulated

SMILES | IL-1β % inhibition
O=C(Nc1ncnc2c1CCN(Cc1ccc(Cl)cc1)C2)C12CC3CC(CC(C3)C1)C2 [Compound 601] | +++ (compound exhibited 50-75% inhibition at 0.3 μM)
O=C(COc1ccccc1)N1CCc2c(ncnc2NC(=O)C23CC4CC(CC(C4)C2)C3)C1 [Compound 421] | + (compound exhibited 0-25% inhibition at 0.3 μM)
CCCCCN1CCc2c(ncnc2NC(=O)C23CC4CC(CC(C4)C2)C3)C1 [Compound 558] | ++ (compound exhibited 25-50% inhibition at 0.3 μM)
O=C(c1ccc(F)cc1)N1CCc2c(ncnc2NC(=O)C23CC4CC(CC(C4)C2)C3)C1 [Compound 423] | ++ (compound exhibited 25-50% inhibition at 0.3 μM)
COc1ccc(OC)c(CN2CCc3c(ncnc3NC(=O)C34CC5CC(CC(C5)C3)C4)C2)c1 [Compound 631] | + (compound exhibited 0-25% inhibition at 0.3 μM)
O=C(Nc1ncnc2c1CCN(Cc1ccc(F)cc1)C2)C12CC3CC(CC(C3)C1)C2 [Compound 607] | ++++ (compound exhibited 75% or greater inhibition at 0.3 μM)
O=C(Nc1ncnc2c1CCN(S(=O)(=O)c1ccc(OC(F)F)cc1)C2)C12CC3CC(CC(C3)C1)C2 [Compound 523] | + (compound exhibited 0-25% inhibition at 0.3 μM)
O=C(Nc1ncnc2c1CCN(CC1CCCCC1)C2)C12CC3CC(CC(C3)C1)C2 [Compound 556] | + (compound exhibited 0-25% inhibition at 0.3 μM)
COc1ccc(OC)c(S(=O)(=O)N2CCc3c(ncnc3NC(=O)C34CC5CC(CC(C5)C3)C4)C2)c1 [Compound 549] | ++ (compound exhibited 25-50% inhibition at 0.3 μM)
COc1ccc(CN2CCc3c(ncnc3NC(=O)C34CC5CC(CC(C5)C3)C4)C2)cc1 [Compound 562] | + (compound exhibited 0-25% inhibition at 0.3 μM)
CS(=O)(=O)N1CCc2c(ncnc2NC(=O)C23CC4CC(CC(C4)C2)C3)C1 [Compound 480] | + (compound exhibited 0-25% inhibition at 0.3 μM)
Cc1nc(S(=O)(=O)N2CCc3c(ncnc3NC(=O)C34CC5CC(CC(C5)C3)C4)C2)cn1C [Compound 499] | + (compound exhibited 0-25% inhibition at 0.3 μM)
O=C(c1ccc(Cl)c(Cl)c1)N1CCc2c(ncnc2NC(=O)C23CC4CC(CC(C4)C2)C3)C1 [Compound 417] | + (compound exhibited 0-25% inhibition at 0.3 μM)
O=C(Nc1ncnc2c1CCN(S(=O)(=O)c1cc(Cl)cc(Cl)c1)C2)C12CC3CC(CC(C3)C1)C2 [Compound 542] | + (compound exhibited 0-25% inhibition at 0.3 μM)
COc1cccc(CC(=O)N2CCc3c(ncnc3NC(=O)C34CC5CC(CC(C5)C3)C4)C2)c1 [Compound 433] | ++ (compound exhibited 25-50% inhibition at 0.3 μM)

Reference: US7297700B2, “Bicycloheteroaryl compounds as P2X7 modulators and uses thereof” (Renovis, Inc., priority 2005, dated 2007)
